Measurements as given in PubChem BioAssay AID1241 (SRMLSC, 2008).

test: compounds inducing NF-kB luciferase expression – cell-based, SH-SY5Y, dose response (AID 1241); details: SH-SY5Y NF-kB promoter luciferase reporter, fold induction

| EC50 [nM] | Compound |
| --- | --- |
| 776 | O=C(COc1ccc2ccccc2c1)Nc1nccs1 |
| 10500 | Oc1sc(C=Nc2ccccc2)c2ccccc12 |
| 1970 | N#C/C(=C/c1ccco1)c1nc2ccccc2s1 |
| 5240 | Cn1c(C(=O)Nc2ccc3c(c2)OCO3)cc2sccc21 |
| 3890 | COc1ccc(-c2nnc(SCc3ccccc3F)o2)cc1 |
| 3870 | Cc1ccccc1C(=O)O/N=C1\CCS(=O)(=O)c2sccc21 |
| 2100 | CCOC(=O)C1=C(C)n2c(s/c(=C/c3cccc([N+](=O)[O-])c3)c2=O)=NC1c1ccc(O)c(OC)c1 (stereo not drawn) |
| 19800 | c1ccc(COc2ccc(OCCCn3cncn3)cc2)cc1 |
| 1050 | Cc1ccsc1/C=N/Nc1cccc(C(=O)O)c1 |
| 4140 | COc1ccc(/C=C2\SC(=O)N(CCNC(=O)C3CC4C=CC3C4)C2=O)cc1 (stereo not drawn) |
| 734 | CCC(C)c1ccc(NC(=O)c2cccs2)cc1 (stereo not drawn) |
| 577 | Cc1ccc(-c2nc3ccc([N+](=O)[O-])cc3[nH]2)cc1 |
| 29300 | COc1cc(OC)cc(-c2nc3cc(C)ccc3o2)c1 |
| 10200 | O=c1c2ccccc2cnn1-c1ccc(Br)cc1 |
| 114 | O=C(Nc1ccc2c(c1)OCCO2)Nc1ccc2c(c1)OCO2 |
| 6190 | COc1ccc(C(=O)Nc2cccc(C)c2)cc1 |
| 14500 | CCOc1ccc2cc(C#N)c(SCC(=O)OC)nc2c1 |
| 772 | O=C(Nc1ccc2c(c1)CCC2)c1ccc(Br)s1 |
| 2960 | Cc1ccc(NC(=O)/C(Cl)=C/c2ccccc2)cc1C |

| EC50 [nM] | Compound |
| --- | --- |
| 1010 | Oc1ccc(F)cc1-c1cc(-c2ccc3c(c2)OCCO3)n[nH]1 |
| 137 | Cc1ccn2cc(-c3cc4ccccc4oc3=O)nc2c1 |
| 2990 | CCCC(=O)Nc1ccc(C(=O)N/N=C/c2ccc[nH]2)cc1 |
| 23400 | O=C(Nc1ccc(F)cc1)/C(Cl)=C/c1ccccc1 |
| 871 | CCOC(=O)c1c(N)sc(C(=O)Nc2ccc3c(c2)OCO3)c1C |
| 847 | CCNc1nc(N)nc(-c2cc(Cl)ccc2O)n1 |
| 3190 | Fc1ccccc1CSc1nc2ccccc2[nH]1 |
| 3070 | Cc1ccc2nc(/C=C/c3cccc(F)c3)ccc2c1 |
| 2450 | Cc1ccc(C(=O)COC(=O)c2cccs2)cc1 |
| 3070 | O=C1CC(c2ccco2)CC2=C1C1c3ccccc3C(=O)N1c1ccccc1N2 (stereo not drawn) |
| 6500 | CC(C)N=c1scc(-c2ccco2)n1/N=C/c1ccc(O)c(O)c1 |
| 9470 | Cc1ccc(/C=N/Nc2cccc3cccnc23)c(O)c1 |
| 2460 | CN(C)c1ccc(NC(=O)CCCc2ccccc2)cc1 |
| 1070 | O=C(Nc1nc2c(s1)CCCC2)c1ccc(Br)s1 |
| 2410 | O=C1C(C=Nc2ccc(F)cc2)=C(O)c2ccccc21 |
| 361 | Cc1ccc(NC(=O)N2CCc3ccccc32)cc1C |
| 2750 | O=C(Nc1ccc(Cl)cc1)c1ccc2c(c1)OCO2 |
| 26500 | O=C(O)c1cc(N/N=C/c2ccc3c(c2)OCCO3)ccc1Cl |
| 1730 | COc1ccc2c(c1)CC/C(=C/c1ccco1)C2=O |

| EC50 [nM] | Compound |
| --- | --- |
| 925 | Cc1ccc(-c2nc(-c3ccccc3)no2)cc1 |
| 129 | CN=c1scc(C)n1/N=C/c1ccc2c(c1)OCO2 |
| 8700 | CC(C)c1ccc(/C=C/c2ccc(=O)n(C)n2)cc1 |
| 16200 | O=C(CCc1ccccc1)Nc1ccc2ccccc2n1 |
| 2320 | c1ccc(-c2ncc(-c3ccn[nH]3)s2)cc1 |
| 1730 | Cc1ccc(N=Cc2sc(O)c3ccccc23)cc1 |
| 1250 | NC(=O)c1ccccc1N/C=C/C(=O)c1ccc(Cl)cc1Cl |
| 5600 | COCCNC(=O)/C(C#N)=C/c1cc(C)n(-c2ccc(C)cc2)c1C |
| 3580 | Oc1ccccc1/C=N/Nc1cccc2cccnc12 |
| 1300 | COc1ccc(Cn2c(C3CC3)nc3ccc(NC(=O)C4CC4)cc3c2=O)cc1 |
| 4130 | O=C(Nc1ccon1)c1cc2c(s1)CCCC2 |
| 2950 | Oc1ccc(/C=N/Nc2cccc3cccnc23)c(O)c1 |
| 2100 | O=C(/C=C/Nc1cccc(O)c1)c1ccccc1 |
| 1640 | c1ccc(Nc2nc(-c3ccncc3)cs2)nc1 |
| 1610 | c1ccc(N2CCN(c3cnc4ccccc4n3)CC2)cc1 |
| 15600 | CN=c1scc(C)n1/N=C/c1ccc(O)cc1 |
| 952 | CCOC(=O)c1sc(NC(=O)c2sccc2C)cc1C |
| 13700 | O=C(Nc1nc(-c2ccc3c(c2)OCCO3)cs1)C1CCCC1 |
| 5000 | O=C1/C(=C\c2ccco2)CCC/C1=C\c1ccco1 |

| Compound | EC50 [nM] |
| --- | --- |
| CCNC(=O)O/N=C(\C)c1sc(-c2ccc(Cl)cc2)nc1C | 1630 |
